Measured values taken from patent US20260077055A1, “COMPOSITIONS OF POLYPLEXES AND SAPONINS” (SAPREME TECHNOLOGIES B.V., priority 2022, published 2026).

Tested on: HEK293FT cells
Assay: pEGFP-N3 polyplex transfection of HEK293FT cells, live cell imaging
Format: cell-based
Method: Spectrophotometry: Concentrations were determined using either a Thermo Nanodrop 2000 spectrometer or Perkin Elmer Lambda 365 Spectrophotometer. DLS measurements: DLS measurements were performed on a Malvern Nano ZS (Malvern Instruments, U.K.), operating at 633 nm with a 173° scattering angle, at 25 or 37° C. DLS mean diameters were obtained from the intensity particle size distribution provided by Malvern Zetasizer Software. DLS histograms were obtained from the intensity particle size distributions. Zeta-potential: The zeta-potential values of the polyplexes were obtained by laser doppler anemometry (LDA), measuring the mean electrophoretic mobility (Malvern Zetasizer Nano ZS, Malvern Instruments, U.K.). Measurements were performed in 10 mM HEPES pH 7.1, 150 mM NaCl. TEM measurements: TEM measurements were performed on a JEOL JEM-1011 operated at 100 kV electron microscope, equipped with a camera S5 MegaView G2. A drop of a solution of polyplexes (0.1 mg/mL) was settled on a PELCO® TEM carbon type-B film copper grid and allowed to dry at room temperature for 1 h. Infrared Spectroscopy: FT-IR spectra were recorded on a Bruker Vertex 70v, equipped with a RockSolid interferometer, after preparing the samples (1-2 mg) as KBr pellets. Spectra were processed using OPUS 7.8 software (Bruker). NMR Spectroscopy: 1H NMR spectra were recorded on a 11.7 T Bruker DRX-500 spectrometer. Chemical shifts are reported in ppm (o units) downfield from the HOD residual solvent peak (CD3OD). Experiments were recorded acquiring 64-512 scans, with a pre-scan delay (d1) of 12 s, and an acquisition time (aq) of 4 s at 300 K. 13C NMR spectrum was recorder on a 9.39 T Varian Innova 400 spectrometer. MestReNova 14.2 software (Mestrelab Research) was used for spectra processing. Cell culture conditions and treatments: HEK293FT, A431, A2058, Neuro2A, Hepa1-6 and MDA-MB 468 were maintained in 10% FBS-supplemented DMEM medium (PAN-Biotech GmbH, or Lonza Group, Basel, Switzerland)+Pen/Strep at 37° C. with 5% CO2. […]

## CC(=O)OC1C(C)OC(OC2C(C)OC(OC(=O)[C@]34CCC(C)(C)CC3C3=CCC5[C@@]6(C)CC[C@H](OC7OC(C(=O)O)C(O)C(OC8OCC(O)C(O)C8O)C7OC7OC(CO)C(O)C(O)C7O)[C@@](C)(/C=N/NC(=O)CCCCCN7C(=O)C=CC7=O)C6CC[C@@]5(C)[C@]3(C)C[C@H]4O)C(OC3OC(C)C(OC4OCC(O)C(OC5OC(CO)C(O)C(O)C5O)C4O)C(O)C3O)C2O)C(O)C1OC1OCC(O)C(O)C1O (stereo partly drawn) [SO1861-EMCH]
40 pM or 120 pM pEGFP-N3, N/P 8, SO1861-EMCH = 4000 nM co-administered with PAMAM G5-(PEG N3)3.5 polyplexes
  pEGFP-N3 transfection (GFP expression): nearly all cells were transfected
40 pM or 120 pM pEGFP-N3 polyplexes, N/P 8, SO1861-EMCH = 4000 nM co-administered with PAMAM G5-(PEG N3)3.5 polyplexes
  toxicity (cell confluency): strong toxicity was observed
4000 nM, without polyplex (data not shown)
  toxicity of SO1861-EMCH alone: not toxic
